Source: PMC3891837 (American journal of obstetrics and gynecology, 2013)
Read-outs that look alike come from different tables or passages of the source.

Legend:
[1] = set-up: species or system human
[2] = set-up: species or system human; remark: listed apart in the source
[3] = test system: efflux transporters (P-gp, MRP, BCRP); assay type: biochemical; details: human, inside-out vesicles from placental brush border membranes, pH 7.4, probe [3H]-paclitaxel, 40 nM
[4] = test system: efflux transporters (P-gp, MRP, BCRP); assay type: biochemical; details: human, inside-out vesicles from placental brush border membranes, pH 7.4, probe [3H]-estrone sulfate, 100 nM

Row | SMILES | transplacental transfer of antipyrine ([1]; marker compound, 20 μg/mL, dual perfusion, 4 h) | normalized transfer (Clearance index) to antipyrine ([1]; Maternal-to-Fetal direction) | concentration in the fetal circuit at the end of the experimental period ([1]; M→F, 4-hour perfusion, initial donor concentration 50 ng/mL) [ng/mL] | drug remained in the maternal circuit ([1]; M→F, end of 4-hour perfusion) [%] | drug retained by the tissue ([1]; M→F, end of 4-hour perfusion) [%] | drug transferred to the fetal circuit ([1]; M→F, end of 4-hour perfusion) [%] | fetal/maternal concentration ratio ([1]; M→F, end of 4-hour perfusion) | appearance in the fetal circuit after start of perfusion ([1]; M→F, initial donor concentration 50 ng/mL) | normalized transfer (Clearance index) to antipyrine ([2]; Fetal-to-Maternal direction, p < 0.01 vs Maternal to Fetal) | concentration in the maternal circuit at the end of perfusion ([2]; F→M, 4 hours of perfusion, initial donor concentration 50 ng/mL) [ng/mL] | maternal/fetal concentration ratio ([2]; F→M, end of 4 hours of perfusion) | time to appearance in the maternal (recipient) circuit ([2]; F→M, initial donor concentration 50 ng/mL) | IC50 at 1 min [3] [µM] | IC50 at 3 min [4] [µM]
1 | Cc1cc(=O)n(-c2ccccc2)n1C [antipyrine] | approximately 50% |  |  |  |  |  |  |  |  |  |  |  |  | 
2 | CC[C@H](C)C(=O)O[C@H]1C[C@H](O)C=C2C=C[C@H](C)[C@H](CC[C@@H](O)C[C@@H](O)CC(=O)O)[C@H]21 [Pravastatin, pravastatin] |  | 0.36 ± 0.07 | 8.8 ± 1.8 | 68 ± 5 | 14 ± 5 | 18 ± 4 | 0.26 ± 0.06 | within the initial five minutes | 0.48 ± 0.07 | 6.4 ± 1.0 | 0.19 ± 0.03 | less than 5 minutes | 11 | 30
